Experiments:
[1] = Pharmacokinetic study of T1249 in hydrogel composition or aqueous solution, subcutaneous injection, blood plasma levels; type: in vivo, Sprague-Dawley rats; conditions: s.c.; for PTF / AUC(0-inf) / Cmax / Tmax / AUC(0-t) / half-life: approximately 1.25 mg/kg, rat plasma; for AUC(0-inf) / Cmax / Tmax / AUC(0-t) / half-life: Sprague-Dawley, rat, plasma, sc, 1.25 mg/kg; for AUC(0-t): read-out: AUC(0-12); for half-life: read-out: t1/2,terminal (converted)
Method: (§1) Pharmacokinetic parameters were calculated from the data as follows: The terminal elimination phase half (t½, terminal) was calculated using the equation 0.693/k, where k equals the terminal elimination rate constant and is determined from a log/linear regression of at least three data points from the plasma concentration-time curve. Cmax was defined as the highest observed concentration between 0 and 12 hours postdose, and tmax is the collection time corresponding to Cmax. The area under the plasma concentration-time curve from 0 to 12 hours postdose (AUC(0-12) was calculated using the trapezoidal rule. AUC(0-∞) was calculated using the trapezoidal rule and extrapolated to infinity by dividing the last plasma concentration by the terminal elimination rate constant (k). PTF values (peak-trough fluctuations) were calculated using the equation (Cmax-Cmin)/Cav. Cmin was defined as the concentration of T20 at 12 hours postdose, and Cav was calculated using the equation AUC(0-12)/12.
Carrier hydrogel compositions containing T1249 were prepared in both a hydrogel and aqueous compositions. A hydrogel composition was prepared by adding 12.5 mg of lyophilized T1249 to 1 mL of the F5 hydrogel formulation described above in Section 6. A pharmaceutical composition of T1249 in aqueous solution was also prepared by combining lyophilized T1249 (12.5 mg) to 2 mL of water for injection (USP). The contained 12.5 mg of T1249, 25 mg mannitol and sodium hydroxide/hydrochloric acid to adjust the pH to 6.5.
The T1249 carrier hydrogel composition were administered to Sprague-Dawley rats according to the protocol described in Section 7.1, above, for T20. The rats were divided randomly into two groups (Groups I and II). The rats in Group I were each administered the above-described hydrogel compositions containing T1249. The rats in Group II were each administered the above-described composition of T1249 in aqueous buffer as a control. Blood plasma levels of T1249 were measured from samples collected from the animals immediately after (0 hours) and 1, 2, 4, 8, 12, 24, 36 and 48 hours post-dosing.
Pharmacokinetic parameters were calculated from the data as described in Section 7.1, above.

[2] = Pharmacokinetic study of T20 in hydrogel compositions or aqueous solution, single subcutaneous bolus injection, blood plasma levels; type: in vivo, Sprague-Dawley rats; conditions: for Tmax / half-life / AUC(0-inf) / Cmax / AUC(0-t): male, Sprague-Dawley, sc; for AUC(0-t): read-out: AUC(0-12)
Method: Pharmacokinetic studies were performed on 16 cannulated male Sprague-Dawley rats having an average weight of 0.230 kg (StdDev=0.008 kg). Specifically, the rats were divided randomly into four groups (Groups I-IV). The rats in Group I were each administered T20 at a concentration of 50 mg/mL in a higher viscosity gel system (i.e., of the F2-50 pharmaceutical composition described in Section 6.1, supra. The rats in Group II were each administered T20 at a concentration of 25 mg/mL in a higher viscosity gel system (i.e., of the F2-25 pharmaceutical composition described in Section 6.1, supra). The rats in Group III were each administered T20 at a concentration of 25 mg/mL in a lower viscosity gel system (i.e., of the F5-25 pharmaceutical composition described in Section 6.1, supra). The rats in Group IV were administered T20 at a concentration of 25 mg/mL in an aqueous buffer (i.e., the WI-25 pharmaceutical composition described supra) as a control. The rats in all of the groups received the T20 via a single subcutaneous bolus injection of 25 μL of the formulation on the right side of the abdomen through a 30G½ Gauge needle. Each group received a dose level of approximately 5 mg/kg (Group I) or 2.5 mg/kg (Groups II-IV). More specifically, the dosages received by the animals in Groups I-IV were 6.71 mg/kg, 2.90 mg/kg, 3.27 mg/kg and 2.78 mg/kg, respectfully. These dosages were selected to approximate the dose levels, on a mg/cm^2 basis, to be used in humans.
Blood plasma levels of T20 were measured from samples collected from the animals immediately after (0 hours) and 1, 2, 4, 8, 12, and 24 hours post-dosing.
as §1

[3] = Group I: 12.5 mg/mL T1249 in low viscosity hydrogel (F5)
[4] = Group II: 12.5 mg/mL T1249 in aqueous buffer (control)
[5] = T20 as a subcutaneous injection of a hydrogel
[6] = 2.9 mg/kg, Group II: F2-25, 25 mg/mL T20 in high viscosity hydrogel, single s.c. bolus 25 μL, 2.90 mg/kg, rat plasma
[7] = Group I: F2-50, 50 mg/mL T20 in high viscosity hydrogel, single s.c. bolus 25 μL, 6.71 mg/kg, rat plasma
[8] = Group III: F5-25, 25 mg/mL T20 in lower viscosity hydrogel, single s.c. bolus 25 μL, 3.27 mg/kg, rat plasma
[9] = Group IV: WI-25, 25 mg/mL T20 in aqueous buffer (control), single s.c. bolus 25 μL, 2.78 mg/kg, rat plasma

Question: Which PTF [1, 3] does the source give for `CC[C@H](C)[C@H](NC(=O)[C@H](CCC(N)=O)NC(=O)[C@H](C)NC(=O)[C@H](CCC(N)=O)NC(=O)[C@H](CCC(=O)O)NC(=O)[C@H](CC(C)C)NC(=O)[C@H](CC(C)C)NC(=O)[C@H](C)NC(=O)[C@@H](NC(=O)[C@@H](NC(=O)[C@H](CCCCN)NC(=O)[C@H](CCC(N)=O)NC(=O)[C@H](CCC(=O)O)NC(=O)[C@H](Cc1c[nH]c2ccccc12)NC(=O)[C@H](CCC(=O)O)NC(=O)[C@H](CCC(N)=O)NC(=O)[C@H](Cc1c[nH]c2ccccc12)NC(C)=O)[C@@H](C)CC)[C@@H](C)O)C(=O)N[C@@H](CCC(N)=O)C(=O)N[C@@H](CCC(N)=O)C(=O)N[C@@H](CCC(=O)O)C(=O)N[C@@H](CCCCN)C(=O)N[C@@H](CC(N)=O)C(=O)N[C@@H](CCC(=O)O)C(=O)N[C@@H](Cc1ccc(O)cc1)C(=O)N[C@@H](CCC(=O)O)C(=O)N[C@@H](CC(C)C)C(=O)N[C@@H](CCC(N)=O)C(=O)N[C@@H](CCCCN)C(=O)N[C@@H](CC(C)C)C(=O)N[C@@H](CC(=O)O)C(=O)N[C@@H](CCCCN)C(=O)N[C@@H](Cc1c[nH]c2ccccc12)C(=O)N[C@@H](C)C(=O)N[C@@H](CO)C(=O)N[C@@H](CC(C)C)C(=O)N[C@@H](Cc1c[nH]c2ccccc12)C(=O)N[C@@H](CCC(=O)O)C(=O)N[C@@H](Cc1c[nH]c2ccccc12)C(=O)N[C@@H](Cc1ccccc1)C(N)=O` [T1249] here?
Answer: 1.62 ± 0.086

Question: What about the PTF [1, 4] of the same compound?
Answer: 4.44 ± 0.680

Question: What about the AUC(0-inf) [1, 3] of the same compound?
Answer: 29100 ± 5200 ng·h/mL

Question: What about the Cmax [1, 3] of the same compound?
Answer: 1900 ± 334 ng/mL

Question: And the Tmax [1, 3]?
Answer: 8 h

Question: What about the AUC(0-t) [1, 3] of the same compound?
Answer: 28200 ± 5640 ng·h/mL

Question: What about the half-life [1, 3] of the same compound?
Answer: 3.37 ± 0.68 h

Question: What about the AUC(0-inf) [1, 4] of the same compound?
Answer: 18400 ± 4070 ng·h/mL

Question: And the Cmax [1, 4]?
Answer: 3320 ± 215 ng/mL

Question: What about the Tmax [1, 4] of the same compound?
Answer: 2 h

Question: What about the AUC(0-t) [1, 4] of the same compound?
Answer: 18300 ± 4060 ng·h/mL

Question: What about the half-life [1, 4] of the same compound?
Answer: 2.28 ± 0.122 h

Question: And the “pharmacokinetic properties, hydrogel versus aqueous solution” value ([1]; T1249 administered in a hydrogel composition)?
Answer: improved pharmacokinetic properties

Question: For enfuvirtide, which “T20 plasma concentration levels within 12 hours” value ([2]; T20 administered by a hydrogel, s.c.) is on record?
Answer: remained elevated

Question: And the “T20 plasma concentration levels within 12 hours” value ([2]; T20 administered in an aqueous solution, s.c.)?
Answer: already cleared the blood stream

Question: What about the “change of bioavailability, hydrogel versus aqueous solution” value [2, 5] of the same compound?
Answer: approximately doubling

Question: And the “change of half-life, hydrogel versus aqueous solution” value [2, 5]?
Answer: approximately doubling

Question: And the “dose proportionality of pharmacokinetics (AUC, t½)” value ([2]; high viscosity hydrogel formulation of T20, s.c., both dose levels)?
Answer: linearity of pharmacokinetics within the dose range tested

Question: What about the Tmax ([2]; rat, plasma, 2.78 mg/kg, Group IV: WI-25, 25 mg/mL T20 in aqueous buffer (control), single s.c. bolus 25 μL, 2.78 mg/kg, rat plasma) of the same compound?
Answer: ~2 h

Question: What about the Tmax ([2]; rat, plasma, 2.9 mg/kg, Group II: F2-25, 25 mg/mL T20 in high viscosity hydrogel, single s.c. bolus 25 μL, 2.90 mg/kg, rat plasma) of the same compound?
Answer: 4 h

Question: And the Tmax ([2]; rat, plasma, 3.27 mg/kg, Group III: F5-25, 25 mg/mL T20 in lower viscosity hydrogel, single s.c. bolus 25 μL, 3.27 mg/kg, rat plasma)?
Answer: 4 h

Question: What about the half-life ([2]; rat, plasma, T20 administered in a hydrogel, s.c., depending on the exact hydrogel formulation and T20 dosage, read-out: group mean half-life values) of the same compound?
Answer: 4.27 to 4.75 h

Question: And the AUC(0-inf) [2, 6]?
Answer: 24800 ± 4860 ng·h/mL

Question: And the Cmax [2, 6]?
Answer: 2830 ± 316 ng/mL

Question: What about the AUC(0-t) [2, 6] of the same compound?
Answer: 19600 ± 3450 ng·h/mL

Question: What about the half-life ([2]; 2.9 mg/kg, Group II: F2-25, 25 mg/mL T20 in high viscosity hydrogel, single s.c. bolus 25 μL, 2.90 mg/kg, rat plasma, read-out: t1/2,terminal (converted)) of the same compound?
Answer: 4.27 ± 0.159 h

Question: And the AUC(0-inf) [2, 7]?
Answer: 55400 ± 9150 ng·h/mL

Question: What about the Cmax [2, 7] of the same compound?
Answer: 5970 ± 499 ng/mL

Question: What about the AUC(0-t) [2, 7] of the same compound?
Answer: 43400 ± 4480 ng·h/mL

Question: And the half-life ([2]; Group I: F2-50, 50 mg/mL T20 in high viscosity hydrogel, single s.c. bolus 25 μL, 6.71 mg/kg, rat plasma, read-out: t1/2,terminal (converted))?
Answer: 4.75 ± 0.285 h

Question: And the AUC(0-inf) [2, 8]?
Answer: 32800 ± 9710 ng·h/mL

Question: What about the Cmax [2, 8] of the same compound?
Answer: 3780 ± 751 ng/mL

Question: And the AUC(0-t) [2, 8]?
Answer: 25700 ± 6140 ng·h/mL

Question: What about the half-life ([2]; Group III: F5-25, 25 mg/mL T20 in lower viscosity hydrogel, single s.c. bolus 25 μL, 3.27 mg/kg, rat plasma, read-out: t1/2,terminal (converted)) of the same compound?
Answer: 4.61 ± 0.618 h

Question: And the AUC(0-inf) [2, 9]?
Answer: 6080 ± 1610 ng·h/mL

Question: What about the Cmax [2, 9] of the same compound?
Answer: 1550 ± 640 ng/mL

Question: And the AUC(0-t) [2, 9]?
Answer: 5870 ± 1690 ng·h/mL

Question: What about the half-life ([2]; Group IV: WI-25, 25 mg/mL T20 in aqueous buffer (control), single s.c. bolus 25 μL, 2.78 mg/kg, rat plasma, read-out: t1/2,terminal (converted)) of the same compound?
Answer: 2.19 h

— patent US6541020B1, “Methods and compositions for administration of therapeutic reagents” (Trimeris, Inc., priority 1999, dated 2003)
